# Key:
# [1] = tested on: Serine/threonine-protein kinase B-raf (Homo sapiens), P15056 [V600E]; settings: Compound concentration 1000.0 nM
# [2] = target: Casein kinase I isoform alpha-like (Homo sapiens) (UniProt Q8N752); settings: Compound concentration 1000.0 nM
# [3] = target: Phosphatidylinositol 4-phosphate 5-kinase type-1 gamma (Homo sapiens) (UniProt O60331); settings: Compound concentration 1000.0 nM
# [4] = target: Serine/threonine-protein kinase 26 (Homo sapiens) (UniProt Q9P289); settings: Compound concentration 1000.0 nM
# Sequence of Serine/threonine-protein kinase 26 (Homo sapiens) (Q9P289 2-416 limits assumed): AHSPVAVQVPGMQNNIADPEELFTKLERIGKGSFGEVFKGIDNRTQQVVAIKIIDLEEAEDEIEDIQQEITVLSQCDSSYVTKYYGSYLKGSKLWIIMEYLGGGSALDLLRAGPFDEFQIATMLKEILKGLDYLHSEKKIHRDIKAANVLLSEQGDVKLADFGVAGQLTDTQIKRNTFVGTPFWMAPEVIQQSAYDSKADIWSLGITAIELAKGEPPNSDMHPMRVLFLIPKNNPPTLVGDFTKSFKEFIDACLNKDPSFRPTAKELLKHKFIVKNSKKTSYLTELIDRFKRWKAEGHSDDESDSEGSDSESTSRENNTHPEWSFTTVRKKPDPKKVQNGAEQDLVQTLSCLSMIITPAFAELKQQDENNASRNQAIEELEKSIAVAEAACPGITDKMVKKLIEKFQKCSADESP
# [5] = target: Death-associated protein kinase 3 (Homo sapiens) (UniProt O43293); settings: Compound concentration 1000.0 nM
# [6] = target: Serine/threonine-protein kinase PLK4 (Homo sapiens) (UniProt O00444); settings: Compound concentration 1000.0 nM
# [7] = target: Serine/threonine-protein kinase DCLK2 (Homo sapiens) (UniProt Q8N568); settings: Compound concentration 1000.0 nM
# [8] = target: Serine/threonine-protein kinase Nek1 (Homo sapiens) (UniProt Q96PY6); settings: Compound concentration 1000.0 nM
# [9] = tested on: Tyrosine-protein kinase ABL1 (Homo sapiens), P00519 [Q252H]; settings: Compound concentration 1000.0 nM
# [10] = target: Glycogen synthase kinase-3 alpha (Homo sapiens) (UniProt P49840); settings: Compound concentration 1000.0 nM
# [11] = target: Cyclin-dependent kinase 11B (Homo sapiens) (UniProt P21127); settings: Compound concentration 1000.0 nM
# [12] = tested on: Tyrosine-protein kinase ABL1 (Homo sapiens), P00519 [Q252H]; settings: Compound concentration 1000.0 nM; remark: listed apart in the source
# [13] = target: Histamine H1 receptor (Homo sapiens) (UniProt P35367); settings: Compound concentration 10.0 uM
# Sequence of Histamine H1 receptor (Homo sapiens) (P35367 whole entry): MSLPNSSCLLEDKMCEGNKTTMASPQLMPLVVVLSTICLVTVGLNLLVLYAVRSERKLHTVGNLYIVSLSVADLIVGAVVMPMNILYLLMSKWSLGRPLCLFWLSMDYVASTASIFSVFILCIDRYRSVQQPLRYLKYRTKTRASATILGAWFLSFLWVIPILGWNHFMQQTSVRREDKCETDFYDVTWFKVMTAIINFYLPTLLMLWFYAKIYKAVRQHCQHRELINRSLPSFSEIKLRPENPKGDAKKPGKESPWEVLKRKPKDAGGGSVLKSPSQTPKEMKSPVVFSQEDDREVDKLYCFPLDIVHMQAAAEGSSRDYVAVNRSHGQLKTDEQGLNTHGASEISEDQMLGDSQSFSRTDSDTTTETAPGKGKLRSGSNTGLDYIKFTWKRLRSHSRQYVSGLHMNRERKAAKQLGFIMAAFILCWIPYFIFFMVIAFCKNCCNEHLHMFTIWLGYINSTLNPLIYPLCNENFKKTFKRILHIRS
# [14] = target: Fibroblast growth factor receptor 3 (Homo sapiens) (UniProt P22607); settings: Compound concentration 1000.0 nM
# Sequence of Fibroblast growth factor receptor 3 (Homo sapiens) (P22607 23-806 limits assumed): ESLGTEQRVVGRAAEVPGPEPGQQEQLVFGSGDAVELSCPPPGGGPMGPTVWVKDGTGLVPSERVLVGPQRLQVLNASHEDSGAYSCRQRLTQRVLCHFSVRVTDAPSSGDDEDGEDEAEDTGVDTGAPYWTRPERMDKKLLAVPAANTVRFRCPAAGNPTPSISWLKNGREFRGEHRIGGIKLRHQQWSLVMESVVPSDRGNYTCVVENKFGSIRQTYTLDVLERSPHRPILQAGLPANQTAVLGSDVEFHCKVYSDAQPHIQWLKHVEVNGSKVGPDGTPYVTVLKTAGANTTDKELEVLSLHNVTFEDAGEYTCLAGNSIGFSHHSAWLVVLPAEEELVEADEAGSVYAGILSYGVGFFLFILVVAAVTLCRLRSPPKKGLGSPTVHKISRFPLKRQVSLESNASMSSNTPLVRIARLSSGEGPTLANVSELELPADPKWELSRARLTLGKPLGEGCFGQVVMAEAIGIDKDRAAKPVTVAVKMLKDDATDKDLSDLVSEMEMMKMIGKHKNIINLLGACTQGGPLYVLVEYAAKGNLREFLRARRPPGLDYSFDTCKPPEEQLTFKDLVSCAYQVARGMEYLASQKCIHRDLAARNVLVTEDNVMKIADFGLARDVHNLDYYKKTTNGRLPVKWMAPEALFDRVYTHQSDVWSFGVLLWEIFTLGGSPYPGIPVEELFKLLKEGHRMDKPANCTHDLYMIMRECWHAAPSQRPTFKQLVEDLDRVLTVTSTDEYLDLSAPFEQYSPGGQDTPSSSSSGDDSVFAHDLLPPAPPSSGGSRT
# [15] = target: Serine/threonine-protein kinase 24 (Homo sapiens) (UniProt Q9Y6E0); settings: Compound concentration 1000.0 nM
# [16] = target: Serine/threonine-protein kinase Nek10 (Homo sapiens) (UniProt Q6ZWH5); settings: Compound concentration 1000.0 nM
# [17] = target: Cyclin-dependent kinase-like 5 (Homo sapiens) (UniProt O76039); settings: Compound concentration 1000.0 nM
# [18] = target: Glycogen synthase kinase-3 beta (Homo sapiens) (UniProt P49841); settings: Compound concentration 1000.0 nM
# [19] = target: Citron Rho-interacting kinase (Homo sapiens) (UniProt O14578); settings: Compound concentration 1000.0 nM
# [20] = target: Serine/threonine-protein kinase PAK 4 (Homo sapiens) (UniProt O96013); settings: Compound concentration 1000.0 nM
# Sequence of Serine/threonine-protein kinase PAK 4 (Homo sapiens) (O96013 whole entry, looked up): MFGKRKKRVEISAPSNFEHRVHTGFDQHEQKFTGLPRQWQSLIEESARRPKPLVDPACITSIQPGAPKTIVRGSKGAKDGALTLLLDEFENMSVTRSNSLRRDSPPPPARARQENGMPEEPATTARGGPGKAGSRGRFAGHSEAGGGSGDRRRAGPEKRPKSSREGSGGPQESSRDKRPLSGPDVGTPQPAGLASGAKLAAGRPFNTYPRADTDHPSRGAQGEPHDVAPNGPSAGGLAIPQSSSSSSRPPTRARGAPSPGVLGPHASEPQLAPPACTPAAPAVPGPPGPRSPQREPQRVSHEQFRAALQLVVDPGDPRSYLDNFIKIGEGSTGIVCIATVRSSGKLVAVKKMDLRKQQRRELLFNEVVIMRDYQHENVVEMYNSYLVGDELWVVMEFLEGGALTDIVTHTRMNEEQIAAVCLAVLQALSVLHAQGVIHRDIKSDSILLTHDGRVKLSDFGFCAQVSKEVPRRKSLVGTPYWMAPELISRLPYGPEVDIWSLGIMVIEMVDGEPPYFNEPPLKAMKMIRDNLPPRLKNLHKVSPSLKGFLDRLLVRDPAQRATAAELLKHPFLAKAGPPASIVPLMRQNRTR
# [21] = target: Tyrosine-protein kinase receptor Tie-1 (Homo sapiens) (UniProt P35590); settings: Compound concentration 1000.0 nM
# [22] = target: Eukaryotic translation initiation factor 2-alpha kinase 1 (Homo sapiens) (UniProt Q9BQI3); settings: Compound concentration 1000.0 nM
# Sequence of Eukaryotic translation initiation factor 2-alpha kinase 1 (Homo sapiens) (Q9BQI3 whole entry): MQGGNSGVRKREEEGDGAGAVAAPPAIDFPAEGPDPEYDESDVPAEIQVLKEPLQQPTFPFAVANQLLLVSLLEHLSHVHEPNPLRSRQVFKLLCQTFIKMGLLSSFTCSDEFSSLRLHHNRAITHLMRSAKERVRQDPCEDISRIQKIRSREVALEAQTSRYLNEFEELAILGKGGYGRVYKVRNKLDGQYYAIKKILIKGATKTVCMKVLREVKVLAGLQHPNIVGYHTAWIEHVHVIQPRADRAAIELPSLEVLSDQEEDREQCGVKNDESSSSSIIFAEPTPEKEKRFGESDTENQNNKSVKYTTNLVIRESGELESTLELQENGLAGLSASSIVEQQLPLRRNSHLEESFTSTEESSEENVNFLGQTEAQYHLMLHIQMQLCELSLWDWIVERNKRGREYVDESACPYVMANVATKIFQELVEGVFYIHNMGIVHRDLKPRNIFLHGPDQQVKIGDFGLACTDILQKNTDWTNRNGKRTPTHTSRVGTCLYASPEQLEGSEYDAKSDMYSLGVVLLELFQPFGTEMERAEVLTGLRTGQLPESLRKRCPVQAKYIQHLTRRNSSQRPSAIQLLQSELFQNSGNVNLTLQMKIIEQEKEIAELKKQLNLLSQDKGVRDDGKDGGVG
# [23] = target: Serine/threonine-protein kinase Nek5 (Homo sapiens) (UniProt Q6P3R8); settings: Compound concentration 1000.0 nM
# [24] = target: Serine/threonine-protein kinase ULK1 (Homo sapiens) (UniProt O75385); settings: Compound concentration 1000.0 nM
# [25] = tested on: Tyrosine-protein kinase ABL1 (Homo sapiens), P00519 [T315I]; settings: Compound concentration 1000.0 nM
# [26] = target: Testis-specific serine/threonine-protein kinase 3 (Homo sapiens) (UniProt Q96PN8); settings: Compound concentration 1000.0 nM
# Sequence of Testis-specific serine/threonine-protein kinase 3 (Homo sapiens) (Q96PN8 whole entry): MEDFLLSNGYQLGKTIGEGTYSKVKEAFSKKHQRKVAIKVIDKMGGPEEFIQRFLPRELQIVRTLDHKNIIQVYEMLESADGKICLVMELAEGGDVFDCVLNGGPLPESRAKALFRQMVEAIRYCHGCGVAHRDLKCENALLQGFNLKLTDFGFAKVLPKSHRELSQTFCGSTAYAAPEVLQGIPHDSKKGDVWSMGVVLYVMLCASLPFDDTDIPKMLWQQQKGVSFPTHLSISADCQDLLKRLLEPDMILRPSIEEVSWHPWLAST
# [27] = target: Dual specificity testis-specific protein kinase 1 (Homo sapiens) (UniProt Q15569); settings: Compound concentration 1000.0 nM
# [28] = target: Mitogen-activated protein kinase kinase kinase 2 (Homo sapiens) (UniProt Q9Y2U5); settings: Compound concentration 1000.0 nM
# [29] = target: Cyclin-dependent kinase 15 (Homo sapiens) (UniProt Q96Q40); settings: Compound concentration 1000.0 nM
# [30] = target: Calcium/calmodulin-dependent protein kinase type 1 (Homo sapiens) (UniProt Q14012); settings: Compound concentration 1000.0 nM
# [31] = target: Ribosomal protein S6 kinase alpha-1 (Homo sapiens) (UniProt Q15418); settings: Compound concentration 1000.0 nM
# Sequence of Ribosomal protein S6 kinase alpha-1 (Homo sapiens) (Q15418 whole entry): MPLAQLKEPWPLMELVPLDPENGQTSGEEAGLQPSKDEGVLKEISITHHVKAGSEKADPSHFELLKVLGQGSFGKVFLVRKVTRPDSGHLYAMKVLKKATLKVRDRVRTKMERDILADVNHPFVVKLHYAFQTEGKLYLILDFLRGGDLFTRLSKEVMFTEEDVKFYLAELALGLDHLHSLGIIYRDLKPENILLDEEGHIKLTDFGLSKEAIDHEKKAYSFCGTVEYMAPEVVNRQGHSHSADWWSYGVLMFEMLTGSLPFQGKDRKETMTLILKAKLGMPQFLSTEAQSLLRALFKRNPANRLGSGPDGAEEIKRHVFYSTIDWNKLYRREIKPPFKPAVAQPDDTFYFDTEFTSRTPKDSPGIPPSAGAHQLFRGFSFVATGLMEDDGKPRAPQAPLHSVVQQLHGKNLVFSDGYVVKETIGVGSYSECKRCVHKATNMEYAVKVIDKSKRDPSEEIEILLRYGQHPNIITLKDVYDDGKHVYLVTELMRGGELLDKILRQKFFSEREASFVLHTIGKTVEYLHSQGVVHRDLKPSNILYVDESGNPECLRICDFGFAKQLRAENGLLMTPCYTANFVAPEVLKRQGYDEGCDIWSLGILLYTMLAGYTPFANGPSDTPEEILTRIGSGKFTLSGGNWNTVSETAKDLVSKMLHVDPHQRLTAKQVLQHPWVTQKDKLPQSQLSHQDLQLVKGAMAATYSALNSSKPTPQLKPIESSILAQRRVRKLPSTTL
# [32] = target: Myosin light chain kinase family member 4 (Homo sapiens) (UniProt Q86YV6); settings: Compound concentration 1000.0 nM
# Sequence of Myosin light chain kinase family member 4 (Homo sapiens) (Q86YV6 whole entry): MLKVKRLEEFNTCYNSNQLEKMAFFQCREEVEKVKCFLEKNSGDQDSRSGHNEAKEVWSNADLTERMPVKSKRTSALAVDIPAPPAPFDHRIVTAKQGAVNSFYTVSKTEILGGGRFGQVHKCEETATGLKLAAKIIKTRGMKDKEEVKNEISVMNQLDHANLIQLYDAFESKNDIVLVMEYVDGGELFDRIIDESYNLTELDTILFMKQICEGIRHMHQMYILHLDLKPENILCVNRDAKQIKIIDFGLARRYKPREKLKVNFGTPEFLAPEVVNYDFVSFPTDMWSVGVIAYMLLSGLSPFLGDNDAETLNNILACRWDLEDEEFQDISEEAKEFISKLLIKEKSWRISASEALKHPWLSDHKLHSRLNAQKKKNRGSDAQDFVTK
# [33] = target: Testis-specific serine/threonine-protein kinase 1 (Homo sapiens) (UniProt Q9BXA7); settings: Compound concentration 1000.0 nM
# [34] = target: Fibroblast growth factor receptor 1 (Homo sapiens) (UniProt P11362); settings: Compound concentration 1000.0 nM
# [35] = target: Death-associated protein kinase 2 (Homo sapiens) (UniProt Q9UIK4); settings: Compound concentration 1000.0 nM
# [36] = target: SRSF protein kinase 2 (Homo sapiens) (UniProt P78362); settings: Compound concentration 1000.0 nM
# [37] = tested on: Epidermal growth factor receptor (Homo sapiens), P00533 [T790M]; settings: Compound concentration 1000.0 nM
# [38] = tested on: Mast/stem cell growth factor receptor Kit (Homo sapiens), P10721 [D816H]; settings: Compound concentration 1000.0 nM
# [39] = target: Myosin light chain kinase 2, skeletal/cardiac muscle (Homo sapiens) (UniProt Q9H1R3); settings: Compound concentration 1000.0 nM
# [40] = target: Tyrosine-protein kinase ZAP-70 (Homo sapiens) (UniProt P43403); settings: Compound concentration 1000.0 nM
# [41] = tested on: Mast/stem cell growth factor receptor Kit (Homo sapiens), P10721 [D816V]; settings: Compound concentration 1000.0 nM
# [42] = tested on: Phosphatidylinositol 4,5-bisphosphate 3-kinase catalytic subunit alpha isoform (Homo sapiens), P42336 [E545A]; settings: Compound concentration 1000.0 nM
# [43] = target: Mitogen-activated protein kinase kinase kinase 12 (Homo sapiens) (UniProt Q12852); settings: Compound concentration 1000.0 nM
# [44] = tested on: Tyrosine-protein kinase ABL1 (Homo sapiens), P00519 [T315I]; settings: Compound concentration 1000.0 nM; remark: listed apart in the source
# [45] = tested on: Epidermal growth factor receptor (Homo sapiens), P00533 [UNDEFINED MUTATION]; settings: Compound concentration 1000.0 nM
# Sequence of Casein kinase I isoform alpha-like (Homo sapiens) (Q8N752 whole entry, canonical isoform): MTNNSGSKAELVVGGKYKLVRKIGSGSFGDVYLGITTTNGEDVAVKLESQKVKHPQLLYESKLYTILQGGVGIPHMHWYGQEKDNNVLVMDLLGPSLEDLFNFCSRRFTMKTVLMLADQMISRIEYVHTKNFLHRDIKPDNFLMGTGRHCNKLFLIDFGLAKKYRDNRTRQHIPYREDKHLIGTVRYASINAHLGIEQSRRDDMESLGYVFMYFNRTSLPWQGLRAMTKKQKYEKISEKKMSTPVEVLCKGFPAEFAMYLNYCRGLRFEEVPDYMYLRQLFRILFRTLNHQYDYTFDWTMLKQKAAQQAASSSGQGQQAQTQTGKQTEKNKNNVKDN
smiles,measurement,setting,value
N#Cc1ccc(Nc2ccc3[nH]c(=O)[nH]c3c2)c(Cl)c1,residual activity,[1],100%
same,residual activity,[2],100%
same,residual activity,[3],67%
same,residual activity,[4],96%
same,residual activity,[5],92%
same,residual activity,[6],87%
same,residual activity,[7],100%
same,residual activity,[8],55%
same,residual activity,[9],89%
same,residual activity,[10],100%
same,residual activity,[11],100%
same,residual activity,[12],100%
same,inhibition,[13],14.7%
same,residual activity,[14],100%
same,residual activity,[15],100%
same,residual activity,[16],100%
same,residual activity,[17],100%
same,residual activity,[18],96%
same,residual activity,[19],100%
same,residual activity,[20],92%
same,residual activity,[21],91%
same,residual activity,[22],100%
same,residual activity,[23],100%
same,residual activity,[24],81%
same,residual activity,[25],90%
same,residual activity,[26],100%
same,residual activity,[27],100%
same,residual activity,[28],100%
same,residual activity,[29],94%
same,residual activity,[30],86%
same,residual activity,[31],93%
same,residual activity,[32],100%
same,residual activity,[33],56%
same,residual activity,[34],100%
same,residual activity,[35],92%
same,residual activity,[36],100%
same,residual activity,[37],91%
same,residual activity,[38],99%
same,residual activity,[39],99%
same,residual activity,[40],90%
same,residual activity,[41],88%
same,residual activity,[42],100%
same,residual activity,[43],100%
same,residual activity,[44],93%
same,residual activity,[45],100%
O=C1CCc2cc(Nc3cc(OC4CCOCC4)c([N+](=O)[O-])cc3Cl)ccc2N1,residual activity,[1],100%
same,residual activity,[2],84%
same,residual activity,[3],100%
same,residual activity,[4],87%
same,residual activity,[5],91%
same,residual activity,[6],86%
same,residual activity,[7],100%
same,residual activity,[8],40%
same,residual activity,[9],79%
same,residual activity,[10],100%
same,residual activity,[11],98%
same,residual activity,[12],100%
same,inhibition,[13],17%
same,residual activity,[14],100%
same,residual activity,[15],97%
same,residual activity,[16],100%
same,residual activity,[17],99%
same,residual activity,[18],96%
same,residual activity,[19],100%
same,residual activity,[20],100%
same,residual activity,[21],100%
same,residual activity,[22],100%
same,residual activity,[23],96%
same,residual activity,[24],87%
same,residual activity,[25],99%
same,residual activity,[26],100%
same,residual activity,[27],92%
same,residual activity,[28],100%
same,residual activity,[29],73%
same,residual activity,[30],93%
same,residual activity,[31],100%
same,residual activity,[32],96%
same,residual activity,[33],85%
same,residual activity,[34],93%
same,residual activity,[35],79%
same,residual activity,[36],100%
same,residual activity,[37],85%
same,residual activity,[38],100%
same,residual activity,[39],90%
same,residual activity,[40],91%
same,residual activity,[41],100%
same,residual activity,[42],100%
same,residual activity,[43],100%
same,residual activity,[44],80%
same,residual activity,[45],100%
